From US9212168B2 (priority 2011, dated 2015)
pEC50: −log10 of the molar value.

tested on: HCV genotype 1a replicon; assay: HCV genotype 1a replicon assay (NS3 protease activity readout); assay type: cell-based, hepatitis C virus; details: HCV genotype 1a replicon
In short: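 Genotype 1a subgenomic replicon cells (APC89, Huh7.5) were treated with compound dose-responses in G418-free medium, 0.5% DMSO final, for 48 or 72 hours at 37° C. Lysate NS3/4a protease activity measured with 15 μM FRET substrate, 20 min at 37° C (ex 340/em 509 nm); EC50 by 4-parameter fit.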

| SMILES | Genotype 1a |
| --- | --- |
| CNC(=O)N1C[C@@H](C)N(c2ccc(C(=O)Nc3cc(OC(F)(F)F)c(-c4ccc(-c5c[nH]c([C@@H]6C[C@H](C)CN6C(=O)[C@@H](NC(=O)OC)C6CC6)n5)cc4)cc3Cl)cn2)C[C@@H]1C [Example 7-3] | D (D represents pEC50>10 (EC50<0.1 nM)) |
| COC(=O)N[C@H](C(=O)N1C[C@@H](C)C[C@H]1c1nc(-c2ccc(-c3cc(Cl)c(NC(=O)c4ccc(N5CCN(C(=O)[C@H]6CCCN6C(=O)OC)C[C@H]5C)nc4)cc3OC(F)(F)F)cc2)c[nH]1)C(C)C [Example 1-37] | D (D represents pEC50>10 (EC50<0.1 nM)) |
| CCC(=O)N1CCN(c2ccc(C(=O)Nc3cc(OC(F)(F)F)c(-c4ccc(-c5c[nH]c([C@@H]6C[C@H](C)CN6C(=O)[C@@H](NC(=O)OC)C(C)C)n5)cc4)cc3Cl)cn2)[C@H](C)C1 [Example 1-73] | D (D represents pEC50>10 (EC50<0.1 nM)) |
| COC(=O)N[C@H](C(=O)N1C[C@@H](C)C[C@H]1c1nc(-c2ccc(-c3cc(F)c(NC(=O)c4ccc(N5CCN(C(=O)C6(C)CC6)C[C@H]5C)nc4)cc3OC(F)(F)F)cc2)c[nH]1)C(C)C [Example 1-79] | C (C represents pEC50 between and 9 and about 10, (EC50 between 1 nM and 0.1 nM)) |
| COC(=O)NC(C(=O)N1CC(OC)CC1c1nc(-c2ccc(-c3ccc(NC(=O)c4ccc(N5CCN(C(=O)C(C)(C)C)CC5C)nc4)cc3OC(F)(F)F)cc2)c[nH]1)C(C)OC (centres unmarked) [Example 16-11] | D (D represents pEC50>10 (EC50<0.1 nM)) |
| CNC(=O)N1C[C@@H](C)N(c2ccc(C(=O)Nc3cc(OC(F)(F)F)c(-c4ccc(-c5c[nH]c([C@@H]6C[C@H](OC)CN6C(=O)[C@@H](NC(=O)OC)C6CCOCC6)n5)cc4)cc3Cl)cn2)C[C@@H]1C [Example 28-8] | D (D represents pEC50>10 (EC50<0.1 nM)) |
| COC(=O)N[C@H](C(=O)N1C[C@@H](C)C[C@H]1c1nc(-c2ccc(-c3cc(Cl)c(C(=O)Nc4ccc(N5CCN(C(=O)C(C)(C)C)C[C@H]5C)nc4)cc3OC(F)(F)F)cc2)c(Cl)[nH]1)C(C)C [Example 4-47] | C (C represents pEC50 between and 9 and about 10, (EC50 between 1 nM and 0.1 nM)) |
| CC[C@H](C)C(=O)N1CCN(c2ccc(C(=O)Nc3cc(OC(F)(F)F)c(-c4ccc(-c5c[nH]c([C@@H]6C[C@H](C)CN6C(=O)[C@@H](NC(=O)OC)C(C)C)n5)cc4)cc3Cl)cn2)[C@H](C)C1 [Example 1-69] | D (D represents pEC50>10 (EC50<0.1 nM)) |
| COC(=O)N[C@H](C(=O)N1C[C@@H](OC)C[C@H]1c1nc(-c2ccc(-c3cc(F)c(NC(=O)c4ccc(N5CCN(C(=O)[C@H]6CC6(C)C)C[C@H]5C)nc4)cc3OC(F)(F)F)cc2)c[nH]1)C(C)C [Example 27-4] | D (D represents pEC50>10 (EC50<0.1 nM)) |
| COC(=O)NC(C(=O)N1CC(C)CC1c1nc(-c2ccc(-c3cc(Cl)c(NC(=O)c4ccc(N5CCN(C(=O)C6CC6(F)Cl)CC5C)nc4)cc3OC(F)(F)F)cc2)c[nH]1)C(C)C (mixture of isomers) [Example 1-59] | D (D represents pEC50>10 (EC50<0.1 nM)) |
| COC(=O)N[C@H](C(=O)N1C[C@@H](C)C[C@H]1c1nc(-c2ccc(-c3cc(Cl)c(NC(=O)c4ccc(N5C[C@H](C)N(C(=O)[C@H]6CCCN6C(=O)OC)C[C@H]5C)nc4)cc3OC(F)(F)F)cc2)c[nH]1)C(C)C [Example 1-46] | D (D represents pEC50>10 (EC50<0.1 nM)) |
| [2H]C([2H])([2H])C1(C([2H])([2H])[2H])CC1C(=O)N1CCN(c2ccc(C(=O)Nc3cc(Cl)c(-c4ccc(-c5c[nH]c([C@@H]6C[C@H](C)CN6C(=O)[C@@H](NC(=O)OC)C(C)C)n5)cc4)cc3F)cn2)[C@H](C)C1 (some centres unmarked) [Example 1-100] | D (D represents pEC50>10 (EC50<0.1 nM)) |
| COC(=O)N[C@H](C(=O)N1C[C@@H](C)C[C@H]1c1nc(-c2ccc(-c3cc(Cl)c(NC(=O)c4ccc(N5CCN(C(=O)C(C)(C)CO)C[C@H]5C)nc4)cc3C(F)(F)F)cc2)c[nH]1)C1CCOCC1 [Example 19-4] | D (D represents pEC50>10 (EC50<0.1 nM)) |
| CNC(=O)N1CCC[C@@]1(C)C(=O)N1CCN(c2ccc(C(=O)Nc3cc(OC(F)(F)F)c(-c4ccc(-c5c[nH]c([C@@H]6C[C@H](C)CN6C(=O)[C@@H](NC(=O)OC)C(C)C)n5)cc4)cc3Cl)cn2)[C@H](C)C1 [Example 1-22] | D (D represents pEC50>10 (EC50<0.1 nM)) |
| CNC(=O)N1CCC[C@@]1(C)C(=O)N1CCN(c2ccc(C(=O)Nc3cc(OC(F)(F)F)c(-c4ccc(-c5c[nH]c([C@@H]6C[C@H](C)CN6C(=O)[C@@H](NC(=O)OC)C(C)C)n5)cc4)cc3F)cn2)[C@H](C)C1 [Example 1-28] | D (D represents pEC50>10 (EC50<0.1 nM)) |
| COC(=O)N[C@H](C(=O)N1C[C@@H](C)C[C@H]1c1nc(-c2ccc(-c3ccc(NC(=O)c4ccc(N5CCN(C(=O)C(C)(C)C)C[C@H]5C)nc4)cc3C(F)(F)F)cc2)c[nH]1)C(C)C [Example 1-63] | D (D represents pEC50>10 (EC50<0.1 nM)) |
| COC(=O)NC(C(=O)N1CC(OC)CC1c1nc(-c2ccc(-c3cc(Cl)c(NC(=O)c4ccc(N5CCN(C(=O)C(C)(C)CO)CC5C)nc4)cc3OC(F)(F)F)cc2)c[nH]1)C(C)(C)O (centres unmarked) [Example 16-9] | D (D represents pEC50>10 (EC50<0.1 nM)) |
| COC(=O)N[C@H](C(=O)N1C[C@@H](OC)C[C@H]1c1nc(-c2ccc(-c3cc(Cl)c(NC(=O)c4ccc(N5C[C@H](C)N(C(=O)C6CC6)C[C@H]5C)nc4)cc3OC(F)(F)F)cc2)c[nH]1)C1CCOCC1 [Example 28-10] | D (D represents pEC50>10 (EC50<0.1 nM)) |
| COC(=O)N[C@H](C(=O)N1C[C@@H](C)C[C@H]1c1nc(-c2ccc(-c3ccc(NC(=O)c4ccc(N5CCN(C(=O)N(C)C)C[C@H]5C)nc4)cc3C(F)(F)F)cc2)c[nH]1)C(C)C [Example 1-64] | C (C represents pEC50 between and 9 and about 10, (EC50 between 1 nM and 0.1 nM)) |

same assay, conditions: Hepatitis C virus, read-out: Genotype 1a, HCV genotype 1a replicon

| SMILES | pEC50 |
| --- | --- |
| COC(=O)N[C@H](C(=O)N1C[C@@H](C)C[C@H]1c1nc(-c2ccc(-c3cc(Cl)c(NC(=O)c4ccc(N5CCN(C(=O)N(CCO)CCO)C[C@H]5C)nc4)cc3OC(F)(F)F)cc2)c[nH]1)C(C)C [Example 12-16] | 9.00 to 10.00 |
| COCCO[C@H](C)[C@H](NC(=O)OC)C(=O)N1C[C@@H](C)C[C@H]1c1nc(-c2ccc(-c3cc(Cl)c(NC(=O)c4ccc(N5CCN(C(=O)C(C)(C)C)C[C@H]5C)nc4)cc3OC(F)(F)F)cc2)c[nH]1 [Example 13-9] | > 10.00 |
| COC(=O)N[C@H](C(=O)N1C[C@@H](C)C[C@H]1c1nc(-c2ccc(-c3cc(Cl)c(NC(=O)c4ccc(N5CCN(C(=O)C(C)(C)N(C)C)C[C@H]5C)nc4)cc3OC(F)(F)F)cc2)c[nH]1)C(C)C [Example 12-20] | > 10.00 |
| CCO[C@H]1C[C@@H](c2nc(-c3ccc(-c4cc(Cl)c(C(=O)Nc5ccc(N6CCN(C(=O)C(C)(C)C)C[C@H]6C)nc5)cc4OC(F)(F)F)cc3)c[nH]2)N(C(=O)[C@@H](NC(=O)OC)C(C)C)C1 [Example 6-27] | 9.00 to 10.00 |
| CCN(C)C(C)C(=O)N1CCN(c2ccc(C(=O)Nc3cc(OC(F)(F)F)c(-c4ccc(-c5c[nH]c([C@@H]6C[C@H](C)CN6C(=O)[C@@H](NC(=O)OC)C(C)C)n5)cc4)cc3Cl)cn2)[C@H](C)C1 (some centres unmarked) [Example 12-22] | 9.00 to 10.00 |
| COC(=O)N[C@H](C(=O)N1C[C@@H](C)C[C@H]1c1nc(-c2ccc(-c3cc(Cl)c(NC(=O)c4ccc(N5CCN(C(=O)C6CC(N)C6)C[C@H]5C)nc4)cc3OC(F)(F)F)cc2)c[nH]1)C(C)C (some centres unmarked) [Example 12-52] | 9.00 to 10.00 |
| COC[C@H]1C[C@@H](c2nc(-c3ccc(-c4cc(Cl)c(NC(=O)c5ccc(N6CCN(C(=O)C(C)(C)C)C[C@H]6C)nc5)cc4OC(F)(F)F)cc3)c[nH]2)N(C(=O)[C@@H](NC(=O)OC)C(C)C)C1 [Example 15-13] | > 10.00 |
| COC(=O)N[C@H](C(=O)N1C[C@@H](C)C[C@H]1c1nc(-c2ccc(-c3cc(Cl)c(NC(=O)c4ccc(N5CCN(C(=O)C(C)N(C)C)C[C@H]5C)nc4)cc3OC(F)(F)F)cc2)c[nH]1)C(C)C (some centres unmarked) [Example 12-23] | > 10.00 |
| COCC(=O)N1CCC[C@@]1(C)C(=O)N1CCN(c2ccc(C(=O)Nc3ccc(-c4ccc(-c5c[nH]c([C@@H]6CC7(CN6C(=O)[C@@H](NC(=O)OC)C(C)C)OCCO7)n5)cc4)c(OC(F)(F)F)c3)cn2)[C@H](C)C1 [Example 5-2] | > 10.00 |
| COC(=O)N[C@H](C(=O)N1C[C@@H](C)C[C@H]1c1nc(-c2ccc(-c3cc(Cl)c(NC(=O)c4ccc(N5CCN(C(=O)C(C)(C)N6CCOCC6)C[C@H]5C)nc4)cc3OC(F)(F)F)cc2)c[nH]1)C(C)C [Example 12-26] | > 10.00 |
| COC(=O)N[C@H](C(=O)N1C[C@@H](C)C[C@H]1c1nc(-c2ccc(-c3cc(Cl)c(NC(=O)c4ccc(N5CCN(C(=O)C(C)(C)C)C[C@H]5C)nc4)cc3OC(F)(F)F)cc2)c[nH]1)C1CCCCC1 [Example 13-39] | 8.00 to 9.00 |
| COC(=O)N[C@H](C(=O)N1CC(C)(C)C[C@H]1c1nc(-c2ccc(-c3cc(F)c(NC(=O)c4ccc(N5CCN(C(=O)C6CC6)C[C@H]5C)nc4)cc3C(F)(F)F)cc2)c[nH]1)C(C)C [Example 3-3] | 9.00 to 10.00 |
| COC(=O)N[C@H](C(=O)N1C[C@@H](C)C[C@H]1c1nc(-c2ccc(-c3cc(Cl)c(NC(=O)c4ccc(N5CCN(C(=O)C(C)(C)C)C[C@H]5C)nc4)cc3OC(F)(F)F)cc2)c[nH]1)[C@H](C)OC [Example 13-8] | > 10.00 |
| CNC(=O)N1C[C@@H](C)N(c2ccc(C(=O)Nc3cc(OC(F)(F)F)c(-c4ccc(-c5c[nH]c([C@@H]6C[C@H](C)CN6C(=O)C(c6ccccc6)N(C)C)n5)cc4)cc3Cl)cn2)C[C@@H]1C (some centres unmarked) [Example 7-11] | > 10.00 |
| COC(=O)N[C@H](C(=O)N1CC2(C[C@H]1c1nc(-c3ccc(-c4cc(Cl)c(NC(=O)c5ccc(N6CCN(C(=O)C(C)(C)C)C[C@H]6C)nc5)cc4OC(F)(F)F)cc3)c[nH]1)OCCO2)C(C)C [Example 5-11] | > 10.00 |
| COC(=O)N[C@H](C(=O)N1C[C@@H](N2CCOCC2)C[C@H]1c1nc(-c2ccc(-c3cc(Cl)c(NC(=O)c4ccc(N5CCN(C(=O)C(C)(C)C)C[C@H]5C)nc4)cc3OC(F)(F)F)cc2)c[nH]1)C(C)C [Example 15-5] | > 10.00 |
